Eleven molecules from ChEMBL document CHEMBL1201862, “PubChem BioAssay data set” (2004) can be followed below.

Assay in all cases: inhibition of tumour cell growth, NCI panel, 48 h
In assay [1] the test system is NCI-H23.
Assay [2] has as its system K562.
In assay [3] the test system is HT-29.
Assay [4] relates to SK-MEL-28.
Assay [5] relates to KM12.
Assay [6] relates to SF-539.
For assay [7], the system named is HCT-15.
In assay [8] the test system is HOP-62.
Assay [9] relates to SNB-19.
For assay [10], the system named is NCI-H522.
The test system of assay [11] is SR.
Assay [12] relates to OVCAR-8.
Assay [13] concerns HCT-116.
For assay [14], the system named is HOP-92.
The subject of assay [15] is NCI/ADR-RES.
For assay [16], the system named is MDA-MB-231.
The subject of assay [17] is PC-3.
The subject of assay [18] is DU-145.

The structures appear in SMILES notation.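 Assay format: 96-well plates, 48-hour exposure. Here, GI50 denotes the concentration required for 50% inhibition of growth.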 Activity calls are given as the source filed them. Cut-off read from the data, not from the text of the source: active = GI50 up to about 1.1 µM and inactive = higher. A value given as a limit tells only on which side of the number the result lay.

Consider `COc1ccc(C(=O)O/N=C2/CCC/C2=C\c2ccccc2)cc1`, for which the GI50 in assay [1] is > 100 µM (inactive); in assay [2], > 100 µM (inactive); in assay [3] it was > 100 µM (inactive); in assay [4], > 100 µM (inactive); in assay [5], > 100 µM (inactive); in assay [6], > 59.3 µM (inactive). The GI50 in assay [7] was over 100 µM; in [8], > 100 µM (inactive); in assay [9] it was > 100 µM (inactive); in [10], 97.3 µM (inactive); in assay [11] it was > 100 µM (inactive); in assay [12] it was > 100 µM (inactive). Also, the GI50 in [13] and in assay [14] was > 100 µM (inactive) in each case.
As for `COC1=CC(O)(CC(N)=O)c2ccccc2C1=O` (configuration not stated), the GI50 in assay [2] is > 100 µM (inactive); in assay [3], > 100 µM (inactive); in assay [4], > 100 µM (inactive); in [5], > 100 µM (inactive); in [7] it was over 100 µM; in assay [8], > 100 µM (inactive). For the same molecule, the GI50 in [9], in assay [10], in assay [11], in [12], in assay [13] and in assay [14] was > 100 µM (inactive) throughout.
Consider `COc1cc2c(cc1OC)C(C#N)(Cc1ccccc1)N(C(=O)c1ccccc1)C=C2` (configuration not stated), for which the GI50 was 75.7 µM (inactive) in assay [1]; 44.3 µM (inactive) in assay [2]; 60.8 µM (inactive) in assay [3]; > 100 µM (inactive) in [4]; 60.7 µM (inactive) in [5]; > 100 µM (inactive) in [6]. Further, the GI50 is 38.8 µM in assay [7]; 51.5 µM (inactive) in assay [8]; > 100 µM (inactive) in assay [9]; 33.9 µM (inactive) in assay [10]; 45.7 µM (inactive) in assay [11]; 65.8 µM (inactive) in [12]. Moreover, the values for the GI50 in assay [13] and in [14] were 50.9 µM (inactive) and 58.2 µM (inactive), respectively.
Regarding `O=C(NCc1ccncc1)C1COc2cc(-c3cc(=O)c4ccccc4o3)ccc2O1` (configuration not stated), the GI50 in [1], in [2], in assay [3], in assay [4], in assay [5] and in assay [6] was > 100 µM (inactive) each time. Moreover, the GI50 in [7] was over 100 µM; in assay [8], > 100 µM (inactive); in assay [10], > 100 µM (inactive); in assay [11], > 100 µM (inactive); in assay [12] it was > 100 µM (inactive); in assay [13] it was > 100 µM (inactive). Also, the GI50 in [14] is > 100 µM (inactive).
Regarding `CCSc1nc(-c2ccc(OC)cc2)c(C#N)c(=O)n1C1OCC(OC(C)=O)C(OC(C)=O)C1OC(C)=O` (configuration not stated), the GI50 was 94.6 µM (inactive) in assay [1]; > 100 µM (inactive) in [2]; > 100 µM (inactive) in [3]; > 100 µM (inactive) in assay [4]; > 100 µM (inactive) in assay [5]; > 100 µM (inactive) in assay [6]. Also, the GI50 in assay [7] was over 100 µM; in assay [8] it was > 100 µM (inactive); in assay [9], > 100 µM (inactive); in assay [10], 92 µM (inactive); in assay [11], > 100 µM (inactive); in assay [13], > 100 µM (inactive). Moreover, the GI50 in [14] is > 100 µM (inactive).
In the case of `C/C(C=O)=C1\C(O)C[C@]1(C)C1CC(C)(C)CC1O` (some centres not stated), the GI50 is > 100 µM (inactive) in [1]; 54.6 µM (inactive) in [2]; > 100 µM (inactive) in [3]; > 100 µM (inactive) in assay [4]; > 100 µM (inactive) in [5]; 49.1 µM (inactive) in assay [6]. Besides, the GI50 was > 100 µM (inactive) in assay [8]; > 100 µM (inactive) in assay [9]; 32 µM (inactive) in assay [10]; 47 µM (inactive) in assay [11]; > 100 µM (inactive) in assay [12]; 72.9 µM (inactive) in [13]. The GI50 in assay [14] was 74.1 µM (inactive).
As for `COc1cc(/C=C2/C(=O)N(C(=O)OCc3ccccc3)C(Cc3cc(OC)c(OC)c(C)c3OC)C(=O)N2Cc2ccccc2)c(OC)c(C)c1OC` (configuration not stated), the GI50 in [1] was > 100 µM (inactive); in [2] it was 39 µM (inactive); in assay [3], > 100 µM (inactive); in assay [4] it was > 100 µM (inactive); in assay [5], > 100 µM (inactive); in assay [6], > 100 µM (inactive). For the same molecule, the GI50 in assay [8] is > 100 µM (inactive); in assay [9], > 100 µM (inactive); in [10], 11 µM (inactive); in [11], 41.1 µM (inactive); in assay [12] it was > 100 µM (inactive); in [13] it was 29.3 µM (inactive). Also, the GI50 in assay [14] is 2.64 µM (inactive).
As for `Cc1cc(O)no1` [HYMEXAZOL], the GI50 in assay [15], in assay [1], in [2], in assay [3], in assay [4] and in assay [16] was > 100 µM (inactive) in each case. Moreover, the GI50 was > 100 µM (inactive) in assay [6]; over 100 µM in assay [7]; > 100 µM (inactive) in [8]; > 100 µM (inactive) in assay [9]; > 100 µM (inactive) in assay [10]; > 100 µM (inactive) in assay [12]. Further, the GI50 in assay [17], in assay [13] and in assay [14] was > 100 µM (inactive) in each case.
`CN(C)c1ccc(N=O)c(O)c1.CN(C)c1ccc(N=O)c(O)c1.[SiH4]`: the GI50 was 10.1 µM (inactive) in [1]; 16.3 µM (inactive) in assay [2]; 6.67 µM (inactive) in assay [3]; 13.2 µM (inactive) in assay [4]; 14.6 µM (inactive) in assay [5]; 14.2 µM (inactive) in [6]. Also, the GI50 in assay [8] was 23 µM (inactive); in assay [9], 17.3 µM (inactive); in [10], 1.53 µM (inactive); in assay [11], 11 µM (inactive); in assay [12], 12.9 µM (inactive); in assay [13], 6.5 µM (inactive). In addition, the GI50 in assay [14] was 3.82 µM (inactive).
For the molecule `CCOC(=O)/C(=C\c1ccc(O)c(OC)c1)C(=O)c1ccccc1`, the GI50 in [1] is 8.22 µM (inactive); in assay [2], 9.59 µM (inactive); in assay [3], 24.7 µM (inactive); in assay [4] it was 9.75 µM (inactive); in assay [5], 11.6 µM (inactive); in assay [6] it was 13.8 µM (inactive). Moreover, the GI50 in assay [18] was 23.1 µM (inactive); in assay [7], 8.75 µM; in assay [8], > 10 µM (inactive); in assay [9] it was 16.5 µM (inactive); in assay [10], 7.5 µM (inactive); in [11], 11 µM (inactive). Besides, the GI50 was 11.7 µM (inactive) in [12], 10.6 µM (inactive) in [13] and 21.3 µM (inactive) in [14].
Take `O=C(/C=C/c1ccccc1F)C(c1ccccc1)c1ccccc1`: the GI50 in assay [1] was 4.22 µM (inactive); in assay [2] it was 3.7 µM (inactive); in assay [3], 2.75 µM (inactive); in assay [4] it was 2.72 µM (inactive); in [5] it was 3.95 µM (inactive); in [6], 2.2 µM (inactive). The GI50 in [7] was 4.31 µM; in assay [9] it was 2.14 µM (inactive); in [10], 2.62 µM (inactive); in assay [11], 3.41 µM (inactive); in assay [13] it was 2.24 µM (inactive); in assay [14] it was 2 µM (inactive).
